Values quoted from earlier work, collected in patent US20070259329A1, “Anergy-inducing cellular composition” (BioVerde. Inc., priority 2006, published 2007).
Read-outs that look alike come from different tables or passages of the source.

Key:
T-cells = settings: Sanbongi et al. (1997); cited from earlier work
[1] = tested on: antibody-stimulated peripheral blood mononuclear cells; settings: Falchetti et al. (2001), cited from earlier work

Row | SMILES | proliferative responses of T-cells (T-cells) | cytokine productions ([1]; low concentrations (5-10 ppm)) | cytokine productions ([1]; still lower concentrations (0.625-2.5 ppm))
1 | Oc1cc(O)c2c(c1)O[C@H](c1ccc(O)c(O)c1)[C@H](O)C2 [(−)-epicatechin] | inhibited |  | 
2 | Oc1ccc(C=Cc2cc(O)cc(O)c2)cc1 [resveratrol] |  | inhibited | enhanced
